The source made the active and inactive calls. No cut-off for these calls is given here.
Legend:
Canis familiaris [1] = test: Diuretic activity in dog assessed as urine volume measured in water at 1 mg/kg, iv after 3 hrs; assay type: functional
Canis familiaris [2] = test: Diuretic activity in dog assessed as urine volume measured in water at 10 mg/kg, iv after 3 hrs; assay type: functional, organism-based; parameters: dose 10 mg/kg; settings: Canis lupus familiaris
Canis familiaris [3] = test: Saluretic activity in dog assessed as urinary excretion of chloride level at 0.1 mg/kg, iv after 3 hrs; assay type: functional, Canis lupus familiaris, Urine
Canis familiaris [4] = test: Saluretic activity in dog assessed as urinary excretion of sodium level at 1 mg/kg, iv after 3 hrs; assay type: functional, Canis lupus familiaris, Urine
Canis familiaris [5] = test: Saluretic activity in dog assessed as urinary excretion of sodium level at 0.1 mg/kg, iv after 3 hrs; assay type: functional, Canis lupus familiaris, Urine
Canis familiaris [6] = test: Diuretic activity in dog assessed as urine volume measured in water at 0.1 mg/kg, iv after 3 hrs; assay type: functional, Canis lupus familiaris
Canis familiaris [7] = test: Saluretic activity in dog assessed as urinary excretion of potassium level at 0.1 mg/kg, iv after 3 hrs; assay type: functional, Canis lupus familiaris, Urine
Canis familiaris [8] = test: Saluretic activity in dog assessed as urinary excretion of chloride level at 1 mg/kg, iv after 3 hrs; assay type: functional, Canis lupus familiaris, Urine
Canis familiaris [9] = test: Saluretic activity in dog assessed as urinary excretion of potassium level at 1 mg/kg, iv after 3 hrs; assay type: functional, Canis lupus familiaris, Urine
Canis familiaris [10] = test: Saluretic activity in dog assessed as urinary excretion of potassium level at 0.01 mg/kg, iv after 3 hrs; assay type: functional, Canis lupus familiaris, Urine
Canis familiaris [11] = test: Diuretic activity in dog assessed as urine volume measured in water at 0.01 mg/kg, iv after 3 hrs; assay type: functional, Canis lupus familiaris
Canis familiaris [12] = test: Saluretic activity in dog assessed as urinary excretion of chloride level at 0.01 mg/kg, iv after 3 hrs; assay type: functional, Canis lupus familiaris, Urine
Canis familiaris [13] = test: Saluretic activity in dog assessed as urinary excretion of sodium level at 0.01 mg/kg, iv after 3 hrs; assay type: functional, Canis lupus familiaris, Urine
Canis familiaris [14] = test: Saluretic activity in dog assessed as urinary excretion of chloride level at 0.1 mg/kg, po after 3 hrs; assay type: functional, Canis lupus familiaris, Urine
Canis familiaris [15] = test: Saluretic activity in dog assessed as urinary excretion of potassium level at 0.1 mg/kg, po after 3 hrs; assay type: functional, Canis lupus familiaris, Urine
Canis familiaris [16] = test: Saluretic activity in dog assessed as urinary excretion of sodium level at 0.1 mg/kg, po after 3 hrs; assay type: functional, Canis lupus familiaris, Urine
Canis familiaris [17] = test: Diuretic activity in dog assessed as urine volume measured in water at 0.1 mg/kg, po after 3 hrs; assay type: functional, Canis lupus familiaris
Canis familiaris [18] = test: Saluretic activity in dog assessed as urinary excretion of potassium level at 1 mg/kg, po after 3 hrs; assay type: functional, Canis lupus familiaris, Urine
Canis familiaris [19] = test: Diuretic activity in dog assessed as urine volume measured in water at 1 mg/kg, po after 3 hrs; assay type: functional, Canis lupus familiaris
Canis familiaris [20] = test: Saluretic activity in dog assessed as urinary excretion of chloride level at 1 mg/kg, po after 3 hrs; assay type: functional, Canis lupus familiaris, Urine
Canis familiaris [21] = test: Saluretic activity in dog assessed as urinary excretion of sodium level at 1 mg/kg, po after 3 hrs; assay type: functional, Canis lupus familiaris, Urine
Canis familiaris [22] = test: Diuretic activity in dog assessed as urine volume measured in water at 0.25 mg/kg, iv after 3 hrs; assay type: functional
Canis familiaris [23] = test: Saluretic activity in dog assessed as urinary excretion of chloride level at 0.25 mg/kg, iv after 3 hrs; assay type: functional, Canis lupus familiaris, Urine
Canis familiaris [24] = test: Saluretic activity in dog assessed as urinary excretion of sodium level at 0.25 mg/kg, iv after 3 hrs; assay type: functional, Canis lupus familiaris, Urine
Canis familiaris [25] = test: Saluretic activity in dog assessed as urinary excretion of potassium level at 0.25 mg/kg, iv after 3 hrs; assay type: functional, Canis lupus familiaris, Urine
Canis familiaris [26] = test: Saluretic activity in dog assessed as urinary excretion of chloride level at 0.25 mg/kg, po after 3 hrs; assay type: functional, Canis lupus familiaris, Urine
Canis familiaris [27] = test: Saluretic activity in dog assessed as urinary excretion of sodium level at 0.25 mg/kg, po after 3 hrs; assay type: functional, Canis lupus familiaris, Urine
Canis familiaris [28] = test: Diuretic activity in dog assessed as urine volume measured in water at 0.25 mg/kg, po after 3 hrs; assay type: functional, Canis lupus familiaris
Canis familiaris [29] = test: Saluretic activity in dog assessed as urinary excretion of potassium level at 0.25 mg/kg, po after 3 hrs; assay type: functional, Canis lupus familiaris, Urine

CCCCNc1cc(C(=O)O)cc2c1C(c1ccccc1)=CS2(=O)=O
Activity (Canis familiaris [1]; Canis lupus familiaris): inactive

CS(=O)(=O)c1cc(C(=O)O)c(NCc2ccccc2)cc1Oc1ccccc1
Activity (Canis familiaris [2]): inactive

CCCCNc1cc(C(=O)O)cc(S(C)(=O)=O)c1Oc1ccccc1
Activity (Canis familiaris [1]): 15 mL/kg | Activity (Canis familiaris [3]): 0.4 milliequivalent/kg | Activity (Canis familiaris [4]): 2.1 milliequivalent/kg | Activity (Canis familiaris [5]): 0.6 milliequivalent/kg | Activity (Canis familiaris [6]): 3 mL/kg | Activity (Canis familiaris [7]): 0.19 milliequivalent/kg | Activity (Canis familiaris [8]): 2.7 milliequivalent/kg | Activity (Canis familiaris [9]): 0.22 milliequivalent/kg

NS(=O)(=O)c1cc(C(=O)O)c(NCc2ccco2)cc1Oc1ccccc1
Activity (Canis familiaris [10]): 0.27 milliequivalent/kg | Activity (Canis familiaris [11]): 8 mL/kg | Activity (Canis familiaris [3]): 3.8 milliequivalent/kg | Activity (Canis familiaris [5]): 2.9 milliequivalent/kg | Activity (Canis familiaris [6]): 25 mL/kg | Activity (Canis familiaris [12]): 0.8 milliequivalent/kg | Activity (Canis familiaris [7]): 0.45 milliequivalent/kg | Activity (Canis familiaris [13]): 0.6 milliequivalent/kg

CS(=O)(=O)c1cc(C(=O)O)cc(OCc2ccccc2)c1C(=O)c1ccccc1
Activity (Canis familiaris [14]): 1.7 milliequivalent/kg | Activity (Canis familiaris [15]): 0.25 milliequivalent/kg | Activity (Canis familiaris [16]): 1.2 milliequivalent/kg | Activity (Canis familiaris [17]): 11 mL/kg

CCCCNc1cc(C(=O)O)cc2c1C(O)(c1ccccc1)CS2(=O)=O (configuration not stated)
Activity (Canis familiaris [1]; Canis lupus familiaris): inactive

CS(=O)(=O)c1cc(C(=O)O)cc(NCc2ccccc2)c1C(=O)c1ccccc1
Activity (Canis familiaris [14]): 1.7 milliequivalent/kg | Activity (Canis familiaris [18]): 0.64 milliequivalent/kg | Activity (Canis familiaris [19]): 33 mL/kg | Activity (Canis familiaris [20]): 4.7 milliequivalent/kg | Activity (Canis familiaris [15]): 0.28 milliequivalent/kg | Activity (Canis familiaris [16]): 1.2 milliequivalent/kg | Activity (Canis familiaris [17]): 12 mL/kg | Activity (Canis familiaris [21]): 3.9 milliequivalent/kg

CS(=O)(=O)c1cc(C(=O)O)cc(NCc2ccccc2)c1Nc1ccccc1
Activity (Canis familiaris [22]; Canis lupus familiaris): inactive

CS(=O)(=O)c1cc(C(=O)O)cc(NCc2ccccc2)c1Sc1ccccc1
Activity (Canis familiaris [22]): 6 mL/kg | Activity (Canis familiaris [1]): 17 mL/kg | Activity (Canis familiaris [4]): 2 milliequivalent/kg | Activity (Canis familiaris [8]): 2.4 milliequivalent/kg | Activity (Canis familiaris [23]): 1 milliequivalent/kg | Activity (Canis familiaris [9]): 0.28 milliequivalent/kg | Activity (Canis familiaris [24]): 0.9 milliequivalent/kg | Activity (Canis familiaris [25]): 0.18 milliequivalent/kg

CCCCOc1cc(C(=O)O)cc(S(C)(=O)=O)c1C(=O)c1ccccc1
Activity (Canis familiaris [14]): 0.8 milliequivalent/kg | Activity (Canis familiaris [18]): 0.54 milliequivalent/kg | Activity (Canis familiaris [19]): 24 mL/kg | Activity (Canis familiaris [20]): 3.4 milliequivalent/kg | Activity (Canis familiaris [15]): 0.22 milliequivalent/kg | Activity (Canis familiaris [16]): 0.5 milliequivalent/kg | Activity (Canis familiaris [17]): 4 mL/kg | Activity (Canis familiaris [21]): 2.6 milliequivalent/kg

CCCCSc1cc(C(=O)O)cc(S(C)(=O)=O)c1Oc1ccccc1
Activity (Canis familiaris [1]): 21 mL/kg | Activity (Canis familiaris [4]): 3 milliequivalent/kg | Activity (Canis familiaris [6]; Canis lupus familiaris): inactive | Activity (Canis familiaris [8]): 3.2 milliequivalent/kg | Activity (Canis familiaris [9]): 0.64 milliequivalent/kg

CSc1cc(C(=O)O)cc(NCc2ccccc2)c1Oc1ccccc1
Activity (Canis familiaris [1]): 7 mL/kg | Activity (Canis familiaris [4]): 0.6 milliequivalent/kg | Activity (Canis familiaris [8]): 0.9 milliequivalent/kg | Activity (Canis familiaris [9]): 0.21 milliequivalent/kg

O=C(O)c1cc(NCc2ccccc2)c2c(c1)S(=O)(=O)CC2(O)c1ccccc1 (configuration not stated)
Activity (Canis familiaris [1]; Canis lupus familiaris): inactive

CCCCNc1cc(C(=O)O)cc(S(C)(=O)=O)c1C(=O)c1ccccc1
Activity (Canis familiaris [26]): 1.2 milliequivalent/kg | Activity (Canis familiaris [27]): 0.9 milliequivalent/kg | Activity (Canis familiaris [28]): 9 mL/kg | Activity (Canis familiaris [29]): 0.19 milliequivalent/kg

CS(=O)(=O)c1cc(C(=O)O)c(NCc2ccccc2)cc1Sc1ccccc1
Activity (Canis familiaris [2]): inactive

CS(=O)(=O)c1cc(C(=O)O)cc(NCc2ccccc2)c1Oc1ccccc1
Activity (Canis familiaris [22]): 21 mL/kg | Activity (Canis familiaris [1]): 31 mL/kg | Activity (Canis familiaris [3]): 1.4 milliequivalent/kg | Activity (Canis familiaris [4]): 4.8 milliequivalent/kg | Activity (Canis familiaris [5]): 1.1 milliequivalent/kg | Activity (Canis familiaris [6]): 9 mL/kg | Activity (Canis familiaris [7]): 0.2 milliequivalent/kg | Activity (Canis familiaris [8]): 5.1 milliequivalent/kg | Activity (Canis familiaris [23]): 3.5 milliequivalent/kg | Activity (Canis familiaris [9]): 0.98 milliequivalent/kg | Activity (Canis familiaris [24]): 3 milliequivalent/kg | Activity (Canis familiaris [25]): 0.99 milliequivalent/kg

CS(=O)(=O)c1cc(C(=O)O)c(NCc2ccccc2)cc1Nc1ccccc1
Activity (Canis familiaris [2]): inactive

CS(=O)(=O)c1cc(C(=O)O)cc(SCc2ccccc2)c1Sc1ccccc1
Activity (Canis familiaris [19]; Canis lupus familiaris): inactive

CS(=O)(=O)c1cc(C(=O)O)c(NCc2ccco2)cc1Oc1ccccc1
Activity (Canis familiaris [1]): 14 mL/kg | Activity (Canis familiaris [4]): 1.7 milliequivalent/kg | Activity (Canis familiaris [8]): 2 milliequivalent/kg | Activity (Canis familiaris [9]): 0.39 milliequivalent/kg

O=C(O)c1cc(NCc2ccccc2)c2c(c1)S(=O)(=O)C=C2c1ccccc1
Activity (Canis familiaris [1]; Canis lupus familiaris): inactive

CCCCNc1cc(C(=O)O)cc(S(N)(=O)=O)c1Oc1ccccc1 [BUMETANIDE]
Activity (Canis familiaris [14]): 4.5 milliequivalent/kg | Activity (Canis familiaris [10]): 0.27 milliequivalent/kg | Activity (Canis familiaris [22]): 39 mL/kg | Activity (Canis familiaris [11]): 10 mL/kg | Activity (Canis familiaris [15]): 0.49 milliequivalent/kg | Activity (Canis familiaris [3]): 3.5 milliequivalent/kg | Activity (Canis familiaris [5]): 2.4 milliequivalent/kg | Activity (Canis familiaris [6]): 26 mL/kg | Activity (Canis familiaris [12]): 1.4 milliequivalent/kg | Activity (Canis familiaris [7]): 0.44 milliequivalent/kg | Activity (Canis familiaris [16]): 3.3 milliequivalent/kg | Activity (Canis familiaris [17]): 31 mL/kg | Activity (Canis familiaris [13]): 0.92 milliequivalent/kg | Activity (Canis familiaris [23]): 5.7 milliequivalent/kg | Activity (Canis familiaris [24]): 4 milliequivalent/kg | Activity (Canis familiaris [25]): 0.84 milliequivalent/kg

C[S+]([O-])c1cc(C(=O)O)cc(NCc2ccccc2)c1Oc1ccccc1 (configuration not stated)
Activity (Canis familiaris [1]): 7 mL/kg | Activity (Canis familiaris [4]): 0.9 milliequivalent/kg | Activity (Canis familiaris [8]): 1.1 milliequivalent/kg | Activity (Canis familiaris [9]): 0.17 milliequivalent/kg
